From paper PMC12350473, “Pharmacokinetics and brain tissue distribution of Gastrodia elata extract in normal and cerebral ischemic rats: a comparative study” (Frontiers in Pharmacology, 2025)

Legend:
[1] = Plasma pharmacokinetics of GEB constituents after oral GEB extract in normal and MCAO rats (UPLC-MS/MS, non-compartmental); settings: for AUC0-t / Tmax / AUC0−∞ / CLz/F / Cmax / MRT0-t / T1/2 / Vz/F: plasma
in vivo = settings: male, Sprague-Dawley, rat, po
[2] = Brain tissue distribution of GEB constituents after oral GEB extract in normal and MCAO rats; type: in vivo
Procedure: An independent cohort (n = 6/group) was sacrificed under deep anesthesia (pentobarbital sodium 40 mg/kg, i. p.) at 0.5 h, 1 h, 3 h, and 12 h post-final dosing. Cerebral perfusion was performed with ice-cold normal saline via left ventricular cannulation to eliminate residual blood. Whole brains were rapidly excised, weighed, and homogenized in four volumes of phosphate-buffered saline (pH 7.4) using a tissue grinder (Precellys 24, Bertin Technologies, France). Homogenates were centrifuged at 12,000 × g for 15 min at 4°C. The supernatants were filtered through 0.22 μm PVDF membranes and aliquoted into polypropylene tubes.
Weigh 300 mg of rat brain tissue and add 3 volumes of PBS solution. […] Collect the supernatant to obtain the test tissue homogenate. Take 400 µL of the homogenate, add 50 µL of internal standard solution and 1,150 µL of methanol, then vortex-mix for 5 min.

[3] = tested on: cerebral ischemia in rats; assay: Therapeutic effect of GEB extract on cerebral ischemia (MCAO): mNSS, body weight, survival, TTC staining; type: in vivo; settings: vs MCAO group, GEB low and high dose, nimodipine control
Procedure: High-dose GEB extract was prepared by adding 4.8 g of GEB extract in 40 mL of purified water to make a 120 mg/mL solution (calculated based on the human daily intake of 48 g of GEB).
The low dose of GEB was prepared by adding 2 g of GEB extract in 40 mL of purified water to make a 50 mg/mL solution (calculated based on the human daily intake of 20 g of GEB).
For preparing positive drugs, 2 nimodipine tablets (30 mg/tablet) were ground and added to 50 mL of purified water to make a 1.2 mg/mL solution (calculated based on the human daily intake of 120 mg of nimodipine).
After induction of deep anesthesia with pentobarbital (40 mg/kg), the rats were euthanized by cervical dislocation, followed by decapitation for brain removal. The brains were immediately flash-frozen in a freezer for 20 min. Then, the olfactory bulb and cerebellum were removed, the brain was cut into 6 coronal sections from anterior to posterior, stained with 1% TTC solution in the dark for 20 min at 37°C, and preserved in 4% paraformaldehyde for 30 min.
Rats were allocated into five groups: sham-operated (Sham), MCAO, low-dose GEB extract (GEB-L), high-dose GEB extract (GEB-H), and nimodipine control (NMDP). […] Longitudinal monitoring included body weight tracking and survival assessment, complemented by triphenyltetrazolium chloride (TTC) staining for cerebral infarction evaluation at study termination.

[4] = parameters: method as in Tang et al., 2015; settings: ref Tang et al., 2015; cited from earlier work
[5] = MCAO rats, GEB extract 1,200 mg/kg oral gavage once daily for 3 days
[6] = MCAO rats, oral GEB extract 4.8 g/kg, n = 8
[7] = MCAO vs normal rats, range over PA, PB, PC, GAS, p < 0.05
[8] = comparison among components after oral GEB extract
[9] = normal rats, oral GEB extract 4.8 g/kg, n = 8

| SMILES | AUC0-t [1, 5] | AUC0-t [1, 6] | AUC0−∞ [1, 6] | CLz/F [1, 6] | Cmax [1, 6] | MRT0-t [1, 6] | T1/2 [1, 6] | Tmax [1, 6] | Vz/F [1, 6] | AUC0-t (in vivo; plasma, 4.8 g/kg) | AUC(0-inf) (in vivo; plasma, 4.8 g/kg) | CL/F (in vivo; plasma, 4.8 g/kg) | Cmax (in vivo; plasma, 4.8 g/kg) | MRT last (in vivo; plasma, 4.8 g/kg) | Tmax (in vivo; plasma, 4.8 g/kg) | half-life (in vivo; plasma, 4.8 g/kg) | BBB penetration / cerebral distribution (in words) [2, 8] | Vz/F [1, 9] | further results |
| --- | --- | --- | --- | --- | --- | --- | --- | --- | --- | --- | --- | --- | --- | --- | --- | --- | --- | --- | --- |
| N[C@@H](CCC(=O)N[C@@H](CSCc1ccc(O)cc1)C(=O)NCC(=O)O)C(=O)O [4-HBG, S-(4-hydroxybenzyl) glutathione] | 129 ± 53 ng·h/mL | 124.8 ± 51.3 ng·h/mL | 129.1 ± 52.8 ng·h/mL | 1050 ± 367 mL/min/kg | 24.6 ± 11.2 ng/mL | 4.37 ± 0.50 h | 2.03 ± 0.24 h | 3.75 ± 0.71 h | 186.8 ± 73.0 L/kg | 113 ± 37.7 ng·h/mL | 120 ± 37 ng·h/mL | 1090 mL/min/kg | 24.1 ± 8.4 ng/mL | 4.18 ± 0.51 h | 3.5 ± 0.93 h | 2.27 ± 1.14 h | – | – | Tmax ([1]; MCAO rats, GEB extract oral): 2.03 ± 0.2 h; AUC0-t (in vivo; plasma, 1200 mg/kg): 120 ± 37 ng·h/mL; Tmax (in vivo; plasma, 1200 mg/kg): 2.3 ± 1.1 h; Vd/F (in vivo; plasma, 4.8 g/kg): 212 ± 102 L/kg |
| OCc1ccc(O[C@@H]2O[C@H](CO)[C@@H](O)[C@H](O)[C@H]2O)cc1 [GAS, gastrodin] | 4,836 ± 791 ng*h/mL | 4,835.6 ± 790.9 ng*h/mL | 4,914.0 ± 728.3 ng*h/mL | 53.3 ± 8.3 mL/min/kg | 4,646.2 ± 1,195.9 ng/mL | 0.88 ± 0.20 h | 0.58 ± 0.29 h | 0.27 ± 0.16 h | 2.7 ± 1.6 L/kg | – | – | – | – | – | – | – | limited BBB penetration | – | Cmax ([1]; MCAO rats, GEB extract 1,200 mg/kg oral once daily for 3 days): 4,646 ± 1,195 ng/mL; CLz/F increase in MCAO rats compared to controls [1, 7]: 1.4–2.0 fold; AUC0-t (in vivo; in vivo, 1200 mg/kg): 6620 ng·h/mL; Cmax (in vivo; in vivo, 1200 mg/kg): 6620 ng/mL; AUC0-t (in vivo; in vivo, 4.8 g/kg): 6620 ng·h/mL; AUC(0-inf) (in vivo; in vivo, 4.8 g/kg): 6690 ng·h/mL; CL/F (in vivo; in vivo, 4.8 g/kg): 38.3 mL/min/kg; Cmax (in vivo; in vivo, 4.8 g/kg): 6620 ng/mL; MRT last (in vivo; in vivo, 4.8 g/kg): 0.83 ± 0.06 h; Tmax (in vivo; in vivo, 4.8 g/kg): 0.31 ± 0.12 h; Vd/F (in vivo; in vivo, 4.8 g/kg): 2 ± 0.2 L/kg; half-life (in vivo; in vivo, 4.8 g/kg): 0.6 ± 0.07 h; cerebral concentration ([2]; normal rats, brain tissue, GEB extract oral): < 40 ng/mL |
| OCc1ccc(O)cc1 [HBA, 4-hydroxybenzyl alcohol] | – | – | – | – | – | – | – | – | – | – | – | – | – | – | – | – | – | – | concentration in rats (in words) ([1]; rats after oral GEB extract): very low |
| COCCOC(=O)C1=C(C)NC(C)=C(C(=O)OC(C)C)C1c1cccc([N+](=O)[O-])c1 (centres unmarked) [NMDP, nimodipine] | – | – | – | – | – | – | – | – | – | – | – | – | – | – | – | – | – | – | therapeutic effect on neurological deterioration, weight loss and infarction [3]: improved these outcomes |
| O=C(CC(O)(CC(=O)OCc1ccc(O[C@@H]2O[C@H](CO)[C@@H](O)[C@H](O)[C@H]2O)cc1)C(=O)OCc1ccc(O[C@@H]2O[C@H](CO)[C@@H](O)[C@H](O)[C@H]2O)cc1)OCc1ccc(O[C@@H]2O[C@H](CO)[C@@H](O)[C@H](O)[C@H]2O)cc1 [PA, Parishin A] | – | 75.4 ± 29.3 ng·h/mL | 85.9 ± 25.0 ng·h/mL | – | 41.5 ± 18.5 ng/mL | 1.33 ± 0.27 h | 1.41 ± 1.75 h | 0.78 ± 0.31 h | 1706.9 ± 1891.6 L/kg | 148 ± 21.9 ng·h/mL | 153 ± 23.5 ng·h/mL | 8150 mL/min/kg | 79.8 ± 9.8 ng/mL | 1.26 ± 0.09 h | 0.94 ± 0.18 h | 0.74 ± 0.1 h | superior BBB permeability | 518.7 ± 88.3 L/kg | CLz/F increase in MCAO rats compared to controls ([1]; rat, in vivo): 1.4–2.0 fold; average GAS molecules released per parent compound [4]: 1.5; conversion efficiency of partial hydrolysis in vivo [4]: 50% |
| O=C(O)CC(O)(CC(=O)OCc1ccc(O[C@@H]2O[C@H](CO)[C@@H](O)[C@H](O)[C@H]2O)cc1)C(=O)OCc1ccc(O[C@@H]2O[C@H](CO)[C@@H](O)[C@H](O)[C@H]2O)cc1 (some centres unmarked) [PB, Parishin B] | – | 108.0 ± 48.8 ng·h/mL | 123.7 ± 38.8 ng·h/mL | 5497 ± 1755 mL/min/kg | 48.8 ± 22.9 ng/mL | 1.63 ± 0.53 h | 2.16 ± 2.76 h | 0.72 ± 0.31 h | 1,034.1 ± 1,468.2 L/kg | 215 ± 37.4 ng·h/mL | 230 ± 50.9 ng·h/mL | 2790 mL/min/kg | – | 1.42 ± 0.13 h | 1 h | – | superior BBB permeability | 237.9 ± 98.4 L/kg | Cmax [1, 9]: 112.8 ± 22.8 ng/mL; T1/2 [1, 9]: 1.01 ± 0.42 h; CLz/F increase in MCAO rats compared to controls ([1]; rat, in vivo): 1.4–2.0 fold |
| O=C(CC(O)(CC(=O)OCc1ccc(O[C@@H]2O[C@H](CO)[C@@H](O)[C@H](O)[C@H]2O)cc1)C(=O)O)OCc1ccc(O[C@@H]2O[C@H](CO)[C@@H](O)[C@H](O)[C@H]2O)cc1 [PC, Parishin C] | – | 30.1 ± 9.6 ng·h/mL | 41.5 ± 15.7 ng·h/mL | 3078 ± 1070 mL/min/kg | 12.1 ± 4.6 ng/mL | 1.68 ± 0.29 h | 2.35 ± 2.08 h | 1.13 ± 0.35 h | 543.6 ± 442.8 L/kg | 56.4 ± 16.2 ng·h/mL | 71.1 ± 18.5 ng·h/mL | 1740 mL/min/kg | 21.5 ± 5.8 ng/mL | 1.78 ± 0.3 h | 0.94 ± 0.5 h | 1.84 ± 0.56 h | – | 266.7 ± 78.4 L/kg | CLz/F increase in MCAO rats compared to controls [1, 7]: 1.4–2.0 fold; BBB penetration / cerebral distribution (in words) ([2]; rat, in vivo, po): superior BBB permeability |
| O=C(O)CC(O)(CC(=O)OCc1ccc(O[C@@H]2O[C@H](CO)[C@@H](O)[C@H](O)[C@H]2O)cc1)C(=O)O (some centres unmarked) [PE, Parishin E] | 1,148 ± 530 ng*h/mL | 1,107.5 ± 517.6 ng*h/mL | 1,147.5 ± 530.4 ng*h/mL | – | 324.9 ± 129.0 ng/mL | 2.68 ± 0.76 h | 1.95 ± 1.03 h | 1.25 ± 0.46 h | 113.9 ± 64.2 L/kg | 1210 ng·h/mL | 1310 ng·h/mL | 697 mL/min/kg | 375 ± 45.5 ng/mL | 2.41 ± 0.33 h | 1.13 ± 0.35 h | 1.82 ± 1.13 h | moderate cerebral distribution | – | AUC0-t (in vivo; plasma, 1200 mg/kg): 1310 ng·h/mL; Vd/F (in vivo; plasma, 4.8 g/kg): 78.6 ± 24.2 L/kg; concentration at 12 h ([2]; male, Sprague-Dawley, rat, brain, oral, 1200 mg/kg, MCAO rats, 12 h post-final dosing): 4.25 ± 2.46 ng/g |
